Structures are written as SMILES. Where “and” joins values, the source holds several entries; their conditions need not be identical. Equal entries are not always repeated. Toxic doses and inconclusive results are not listed.

The text below walks through data of PubChem BioAssay AID330 (DTP/NCI, 2004).

In this experiment the test system is P388 leukemia ip, CD2F1 mice, survival T/C. As to the kind of experiment: NCI In Vivo Anticancer Drug Screen. Data for tumor model P388 Leukemia (intraperitoneal) in CD2F1 (CDF1) mice. The note with it: endpoint: median survival time, higher = longer survival. The essentials: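 Mice carrying the transplanted tumor received test compound or vehicle. Survival was recorded in each group, and the value is the treated-group measurement divided by that of the vehicle-treated control group.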

Setting [1] is: dose: 60.0 mg/kg/injection, schedule: Q01DX005 (ip), vehicle: saline with Tween-80.
[2] abbreviates: dose: 120.0 mg/kg/injection, schedule: Q01DX005 (ip), vehicle: saline with Tween-80.
The mark [3] stands for this setting: dose: 240.0 mg/kg/injection, schedule: Q01DX005 (ip), vehicle: saline with Tween-80.
Setting [4] is: dose: 50.0 mg/kg/injection, schedule: Q01DX009 (ip), vehicle: Klucel (hydroxypropylcellulose) (HPC).
Where [5] appears, read: dose: 100.0 mg/kg/injection, schedule: Q01DX009 (ip), vehicle: Klucel (hydroxypropylcellulose) (HPC).
The mark [6] stands for this setting: dose: 200.0 mg/kg/injection, schedule: Q01DX009 (ip), vehicle: Klucel (hydroxypropylcellulose) (HPC).
[7] abbreviates: dose: 100.0 mg/kg/injection, schedule: Q04DX002 (ip), vehicle: Klucel (hydroxypropylcellulose) (HPC).
Setting [8] is: dose: 200.0 mg/kg/injection, schedule: Q04DX002 (ip), vehicle: Klucel (hydroxypropylcellulose) (HPC).
[9] abbreviates: dose: 400.0 mg/kg/injection, schedule: Q04DX002 (ip), vehicle: Klucel (hydroxypropylcellulose) (HPC).
Where [10] appears, read: dose: 60.0 mg/kg/injection, schedule: Q01DX005 (ip), vehicle: Klucel (hydroxypropylcellulose) (HPC).
The mark [11] stands for this setting: dose: 120.0 mg/kg/injection, schedule: Q01DX005 (ip), vehicle: Klucel (hydroxypropylcellulose) (HPC).
[12] abbreviates: dose: 50.0 mg/kg/injection, schedule: Q01DX009 (ip), vehicle: saline.
[13] abbreviates: dose: 50.0 mg/kg/injection, schedule: Q01DX009 (ip), vehicle: saline with Tween-80.
Setting [14] is: dose: 12.5 mg/kg/injection, schedule: Q01DX009 (ip), vehicle: saline.

On to `COc1ccc(OC)c(C2SCC(=O)N2c2nncs2)c1` (configuration not stated), for which the T/C runs as follows: under setting [1], 104 % of control; under setting [2], 97 % of control; under setting [3], 97 % of control.
Regarding `Nc1nc2ccc([N+](=O)[O-])cc2[nH]1`, the T/C is 99 % of control under setting [4], 101 % of control under setting [5] and 90 % of control under setting [6].
On to `CC1=CCC2C([C@H]1OC(=O)c1ccc([N+](=O)[O-])cc1)C(C)(C)CCC[C@]2(C)O` (some centres not stated), for which the T/C was 98 % of control under setting [7], 89 % of control under setting [8] and 90 % of control under setting [9].
Take `CCOC(=O)NC(=N/C(=C/c1cccc(C)n1)c1ccccc1)c1ccccc1`: the T/C reads like this: under setting [10], 93 % of control; under setting [11], 91 % of control.
As for `CCOC(=O)CC(=O)C(OC)OC`, the T/C is, setting by setting: under setting [12], 106 % of control; (dose: 100.0 mg/kg/injection, schedule: Q01DX009 (ip), vehicle: saline) 105 % of control; (dose: 200.0 mg/kg/injection, schedule: Q01DX009 (ip), vehicle: saline) 102 % of control; (dose: 400.0 mg/kg/injection, schedule: Q01DX009 (ip), vehicle: saline) 98 % of control.
With `O=C1CCC(NC(=O)c2ccccc2)C(=O)N1` (configuration not stated), the T/C (dose: 31.25 mg/kg/injection, schedule: Q01DX005 (ip), vehicle: Klucel (hydroxypropylcellulose) (HPC)) was 102 % of control; the T/C under setting [1] is 98 % of control; the T/C (dose: 62.5 mg/kg/injection, schedule: Q01DX005 (ip), vehicle: Klucel (hydroxypropylcellulose) (HPC)) is 98 % of control; the T/C under setting [2] is 107 % of control; the T/C (dose: 125.0 mg/kg/injection, schedule: Q01DX005 (ip), vehicle: Klucel (hydroxypropylcellulose) (HPC)) is 102 % of control; the T/C under setting [3] is 100 % of control. Besides, the T/C was 100 % of control (dose: 250.0 mg/kg/injection, schedule: Q01DX005 (ip), vehicle: Klucel (hydroxypropylcellulose) (HPC)) and 92 % of control (dose: 500.0 mg/kg/injection, schedule: Q01DX005 (ip), vehicle: Klucel (hydroxypropylcellulose) (HPC)).
For the molecule `CN(C)c1ccc(C(Cl)[O][Sn]([Cl])([c]2ccccc2)[c]2ccccc2)cc1.[CH3][Sn]([CH3])([Cl])[Cl]` (configuration not stated), the T/C by setting is: (dose: 1.56 mg/kg/injection, schedule: Q01DX005 (ip), vehicle: saline with Tween-80) 112 % of control; (dose: 3.12 mg/kg/injection, schedule: Q01DX005 (ip), vehicle: saline with Tween-80) 113 % of control and 119 % of control; (dose: 6.25 mg/kg/injection, schedule: Q01DX005 (ip), vehicle: saline with Tween-80) 109 % of control.
With `CCC(C)(Oc1ccc(Cc2ccc(Cl)cc2)cc1)C(=O)OCc1cccnc1` (configuration not stated), the T/C is 95 % of control (dose: 50.0 mg/kg/injection, schedule: Q01DX009 (ip), vehicle: suspension in saline); 95 % of control (dose: 100.0 mg/kg/injection, schedule: Q01DX009 (ip), vehicle: suspension in saline); 94 % of control (dose: 200.0 mg/kg/injection, schedule: Q01DX009 (ip), vehicle: suspension in saline).
`COc1cc(/C=C/c2ccc(N(C)C)cc2)oc(=O)c1`: the T/C under setting [7] was 101 % of control, the T/C under setting [8] is 98 % of control and the T/C under setting [9] is 99 % of control.
As for `CC(=O)OC1C=CC(=O)C1(O)CO` (configuration not stated), the T/C is 97 % of control (dose: 2.0 mg/kg/injection, schedule: Q01DX009 (ip), vehicle: saline); 98 % of control (dose: 4.0 mg/kg/injection, schedule: Q01DX009 (ip), vehicle: saline); 118 % of control (dose: 8.0 mg/kg/injection, schedule: Q01DX009 (ip), vehicle: saline); 116 % of control (dose: 16.0 mg/kg/injection, schedule: Q01DX009 (ip), vehicle: saline).
On to `CNc1cccnc1C1OCCO1`, for which the T/C (dose: 50.0 mg/kg/injection, schedule: Q01DX005 (ip), vehicle: Klucel (hydroxypropylcellulose) (HPC)) was 96 % of control; the T/C (dose: 100.0 mg/kg/injection, schedule: Q01DX005 (ip), vehicle: Klucel (hydroxypropylcellulose) (HPC)) is 102 % of control; the T/C (dose: 200.0 mg/kg/injection, schedule: Q01DX005 (ip), vehicle: Klucel (hydroxypropylcellulose) (HPC)) was 100 % of control.
For `CCOC(=O)C(C#N)C(=N)C1CC(C)(C)OC1=O` (configuration not stated), the T/C was 100 % of control under setting [1], 103 % of control under setting [2] and 94 % of control under setting [3].
Regarding `CC(=O)NN=C(c1ccccc1)c1ccccc1`, the T/C under setting [13] was 100 % of control; the T/C (dose: 100.0 mg/kg/injection, schedule: Q01DX009 (ip), vehicle: saline with Tween-80) is 100 % of control; the T/C (dose: 200.0 mg/kg/injection, schedule: Q01DX009 (ip), vehicle: saline with Tween-80) was 100 % of control.
As for `NNC(=O)C1CCN1C(c1ccccc1)c1ccccc1` (configuration not stated), the T/C was 106 % of control (dose: 12.5 mg/kg/injection, schedule: Q01DX009 (ip), vehicle: Klucel (hydroxypropylcellulose) (HPC)); 102 % of control (dose: 25.0 mg/kg/injection, schedule: Q01DX009 (ip), vehicle: Klucel (hydroxypropylcellulose) (HPC)); 102 % of control under setting [4]; 95 % of control under setting [5].
Consider `O=C(CCCCCCCCc1ccc(O)cc1)c1c(O)cccc1O`, for which the T/C (dose: 6.5 mg/kg/injection, schedule: Q01DX009 (ip), vehicle: Klucel (hydroxypropylcellulose) (HPC)) was 101 % of control; the T/C (dose: 13.0 mg/kg/injection, schedule: Q01DX009 (ip), vehicle: Klucel (hydroxypropylcellulose) (HPC)) was 108 % of control; the T/C (dose: 26.0 mg/kg/injection, schedule: Q01DX009 (ip), vehicle: Klucel (hydroxypropylcellulose) (HPC)) is 95 % of control; the T/C (dose: 52.0 mg/kg/injection, schedule: Q01DX009 (ip), vehicle: Klucel (hydroxypropylcellulose) (HPC)) was 105 % of control.
Turning to `NC(CO)C(=O)O.[Cl-].[Cl-].[Cl-].[Cl-].[Pt+2]` (configuration not stated), the T/C is, setting by setting: (dose: 6.25 mg/kg/injection, schedule: Q01DX009 (ip), vehicle: saline) 114 % of control; under setting [14], 115 % of control; under setting [12], 159 % of control.
As for `Oc1ccc[nH]c1=S`, the T/C under setting [14] was 104 % of control and 105 % of control.
In the case of `CCS(=O)(=O)Nc1cccc(Nc2c3cccc(C)c3nc3c(C)cccc23)c1OC`, the T/C (dose: 0.7 mg/kg/injection, schedule: Q01DX009 (ip), vehicle: saline with Tween-80) was 121 % of control; the T/C (dose: 5.5 mg/kg/injection, schedule: Q01DX009 (ip), vehicle: saline with Tween-80) was 157 % of control; the T/C (dose: 6.25 mg/kg/injection, schedule: Q01DX009 (ip), vehicle: saline with Tween-80) is 171 % of control; the T/C (dose: 11.0 mg/kg/injection, schedule: Q01DX009 (ip), vehicle: saline with Tween-80) is 172 % of control and 217 % of control; the T/C (dose: 12.5 mg/kg/injection, schedule: Q01DX009 (ip), vehicle: saline with Tween-80) is 177 % of control; the T/C (dose: 16.7 mg/kg/injection, schedule: Q01DX009 (ip), vehicle: saline with Tween-80) is 220 % of control. The T/C (dose: 25.0 mg/kg/injection, schedule: Q01DX009 (ip), vehicle: saline with Tween-80) was 155 % of control and 266 % of control; the T/C (dose: 37.5 mg/kg/injection, schedule: Q01DX009 (ip), vehicle: saline with Tween-80) is 86 % of control; the T/C under setting [13] was 91 % of control.
Take `O=c1cc[nH]c2c1ccc1[nH]ccc(=O)c12`: the T/C is, setting by setting: under setting [10], 108 % of control; under setting [11], 99 % of control; (dose: 240.0 mg/kg/injection, schedule: Q01DX005 (ip), vehicle: Klucel (hydroxypropylcellulose) (HPC)) 99 % of control.
`CC(=O)C1C(=O)C(=O)N(c2ccccc2C)C1=O` (configuration not stated): the T/C is 105 % of control under setting [4]; 103 % of control under setting [1]; 107 % of control under setting [5]; 100 % of control under setting [2]; 110 % of control under setting [6].
For the molecule `C/C(CC(O)(c1ccccc1)c1ccccc1)=N/Sc1ccccc1`, the T/C is, setting by setting: (dose: 100.0 mg/kg/injection, schedule: Q04DX003 (ip), vehicle: Klucel (hydroxypropylcellulose) (HPC)) 100 % of control; (dose: 200.0 mg/kg/injection, schedule: Q04DX003 (ip), vehicle: Klucel (hydroxypropylcellulose) (HPC)) 92 % of control; (dose: 400.0 mg/kg/injection, schedule: Q04DX003 (ip), vehicle: Klucel (hydroxypropylcellulose) (HPC)) 94 % of control.
